In ChEMBL document CHEMBL3124876, “A perylene derivative regulates HIF-1α and Stat3 signaling pathways” (Bioorg Med Chem, 2014):
Activity calls are given as the source filed them. No cut-off for these calls is given here.

Assays:
[1] = Reduction of HIF-1 alpha mRNA expression in human PANC1 cells at 5 to 10 uM by qRT-PCR analysis; format: functional, cell-based; settings: PANC-1
[2] = biological target: RAC-alpha serine/threonine-protein kinase (Homo sapiens) (UniProt P31749); assay: Inhibition of AKT phosphorylation in human PANC1 cells at 1 to 20 uM by Western blotting analysis; format: cell-based; settings: PANC-1
RAC-alpha serine/threonine-protein kinase (Homo sapiens), sequence (P31749 whole entry): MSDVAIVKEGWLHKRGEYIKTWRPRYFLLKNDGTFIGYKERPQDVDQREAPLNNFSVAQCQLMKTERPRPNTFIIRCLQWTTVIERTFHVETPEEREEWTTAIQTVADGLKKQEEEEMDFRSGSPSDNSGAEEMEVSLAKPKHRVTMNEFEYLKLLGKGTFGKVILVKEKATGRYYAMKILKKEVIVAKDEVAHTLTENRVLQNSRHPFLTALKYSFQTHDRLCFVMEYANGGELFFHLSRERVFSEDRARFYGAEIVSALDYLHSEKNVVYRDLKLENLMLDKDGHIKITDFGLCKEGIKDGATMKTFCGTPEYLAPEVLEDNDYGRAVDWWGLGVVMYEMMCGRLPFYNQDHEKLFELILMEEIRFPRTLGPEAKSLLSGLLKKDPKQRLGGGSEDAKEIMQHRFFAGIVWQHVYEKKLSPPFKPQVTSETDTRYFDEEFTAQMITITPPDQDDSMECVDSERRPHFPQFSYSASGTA

[3] = biological target: Hypoxia-inducible factor 1-alpha (Homo sapiens) (UniProt Q16665); assay: Inhibition of HIF-1 alpha in human OVCAR3 cells assessed as inhibition of Bcl2 expression at 1 to 20 uM by Western blotting analysis in normoxia condition; format: cell-based; settings: OVCAR-3
Hypoxia-inducible factor 1-alpha (Homo sapiens), sequence (Q16665 whole entry, looked up): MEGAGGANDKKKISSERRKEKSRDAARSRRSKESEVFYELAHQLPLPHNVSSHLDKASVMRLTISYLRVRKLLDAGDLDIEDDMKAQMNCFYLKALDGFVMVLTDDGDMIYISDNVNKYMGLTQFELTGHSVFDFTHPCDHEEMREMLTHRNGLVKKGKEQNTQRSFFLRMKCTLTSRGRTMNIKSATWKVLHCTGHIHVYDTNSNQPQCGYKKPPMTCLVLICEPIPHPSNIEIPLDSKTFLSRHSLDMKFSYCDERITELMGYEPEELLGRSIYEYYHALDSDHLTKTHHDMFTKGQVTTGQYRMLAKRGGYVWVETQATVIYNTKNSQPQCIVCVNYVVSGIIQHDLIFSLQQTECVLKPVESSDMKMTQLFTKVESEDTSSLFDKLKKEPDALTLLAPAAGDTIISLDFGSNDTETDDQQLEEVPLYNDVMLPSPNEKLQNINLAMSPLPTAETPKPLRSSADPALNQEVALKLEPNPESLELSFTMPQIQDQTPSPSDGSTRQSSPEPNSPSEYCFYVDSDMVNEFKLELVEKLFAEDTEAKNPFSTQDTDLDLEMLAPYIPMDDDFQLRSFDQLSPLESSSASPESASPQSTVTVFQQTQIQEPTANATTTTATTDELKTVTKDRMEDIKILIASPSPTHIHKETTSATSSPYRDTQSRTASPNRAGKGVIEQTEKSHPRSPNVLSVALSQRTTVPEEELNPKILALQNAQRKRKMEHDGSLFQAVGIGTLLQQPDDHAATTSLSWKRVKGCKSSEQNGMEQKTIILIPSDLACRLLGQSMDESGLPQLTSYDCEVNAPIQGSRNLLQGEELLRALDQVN

[4] = biological target: Tyrosine-protein kinase JAK2 (Homo sapiens) (UniProt O60674); assay: Inhibition of JAK2 (unknown origin) phosphorylation at 10 uM after 6 hrs by cell-based Western blotting analysis
Tyrosine-protein kinase JAK2 (Homo sapiens), sequence (O60674 whole entry): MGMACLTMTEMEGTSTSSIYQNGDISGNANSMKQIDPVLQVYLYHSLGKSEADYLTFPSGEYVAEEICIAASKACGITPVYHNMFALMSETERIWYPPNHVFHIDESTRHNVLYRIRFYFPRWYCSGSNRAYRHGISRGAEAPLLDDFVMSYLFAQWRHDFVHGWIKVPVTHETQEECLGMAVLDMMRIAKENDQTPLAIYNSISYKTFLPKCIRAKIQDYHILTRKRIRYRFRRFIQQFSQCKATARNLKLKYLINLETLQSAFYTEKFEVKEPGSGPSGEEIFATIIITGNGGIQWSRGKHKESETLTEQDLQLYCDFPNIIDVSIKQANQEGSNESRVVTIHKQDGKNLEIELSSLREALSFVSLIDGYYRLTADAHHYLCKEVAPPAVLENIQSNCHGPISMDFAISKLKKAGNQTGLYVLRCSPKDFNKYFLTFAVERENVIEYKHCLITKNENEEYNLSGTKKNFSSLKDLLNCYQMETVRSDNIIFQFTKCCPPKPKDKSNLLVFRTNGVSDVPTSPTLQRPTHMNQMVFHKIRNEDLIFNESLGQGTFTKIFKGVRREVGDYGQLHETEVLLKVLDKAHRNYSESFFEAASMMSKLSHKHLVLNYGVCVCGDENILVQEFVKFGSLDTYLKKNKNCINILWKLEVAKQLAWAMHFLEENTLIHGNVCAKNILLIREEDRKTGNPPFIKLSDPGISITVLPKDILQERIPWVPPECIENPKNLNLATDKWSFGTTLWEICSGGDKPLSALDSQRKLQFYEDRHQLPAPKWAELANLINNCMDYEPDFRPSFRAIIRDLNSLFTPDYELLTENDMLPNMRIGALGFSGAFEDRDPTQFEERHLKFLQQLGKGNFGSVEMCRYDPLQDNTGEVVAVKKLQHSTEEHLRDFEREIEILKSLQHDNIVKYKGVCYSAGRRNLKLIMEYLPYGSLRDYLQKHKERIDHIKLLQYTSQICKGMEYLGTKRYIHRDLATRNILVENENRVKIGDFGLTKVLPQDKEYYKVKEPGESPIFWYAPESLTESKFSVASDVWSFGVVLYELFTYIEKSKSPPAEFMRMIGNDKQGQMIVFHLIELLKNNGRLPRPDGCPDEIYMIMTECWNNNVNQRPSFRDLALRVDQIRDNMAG

MDA-MB-468 [5] = assay: Induction of apoptosis in human MDA-MB-468 cells assessed as reduction in cell viability at 8 uM after 12 to 48 hrs by MTT assay; format: functional, cell-based
[6] = biological target: Hypoxia-inducible factor 1-alpha (Homo sapiens) (UniProt Q16665); assay: Inhibition of HIF-1 alpha in human MDA-MB-468 cells assessed as proteasomal degradation at 4 to 7 uM after 18 hrs by immunoblotting analysis in hypoxia condition in presence of MG132; format: cell-based
[7] = biological target: Signal transducer and activator of transcription 3 (Homo sapiens) (UniProt P40763); settings: MDA-MB-468, 1 to 20 uM
Signal transducer and activator of transcription 3 (Homo sapiens), sequence (P40763 whole entry, the tested form may be a part): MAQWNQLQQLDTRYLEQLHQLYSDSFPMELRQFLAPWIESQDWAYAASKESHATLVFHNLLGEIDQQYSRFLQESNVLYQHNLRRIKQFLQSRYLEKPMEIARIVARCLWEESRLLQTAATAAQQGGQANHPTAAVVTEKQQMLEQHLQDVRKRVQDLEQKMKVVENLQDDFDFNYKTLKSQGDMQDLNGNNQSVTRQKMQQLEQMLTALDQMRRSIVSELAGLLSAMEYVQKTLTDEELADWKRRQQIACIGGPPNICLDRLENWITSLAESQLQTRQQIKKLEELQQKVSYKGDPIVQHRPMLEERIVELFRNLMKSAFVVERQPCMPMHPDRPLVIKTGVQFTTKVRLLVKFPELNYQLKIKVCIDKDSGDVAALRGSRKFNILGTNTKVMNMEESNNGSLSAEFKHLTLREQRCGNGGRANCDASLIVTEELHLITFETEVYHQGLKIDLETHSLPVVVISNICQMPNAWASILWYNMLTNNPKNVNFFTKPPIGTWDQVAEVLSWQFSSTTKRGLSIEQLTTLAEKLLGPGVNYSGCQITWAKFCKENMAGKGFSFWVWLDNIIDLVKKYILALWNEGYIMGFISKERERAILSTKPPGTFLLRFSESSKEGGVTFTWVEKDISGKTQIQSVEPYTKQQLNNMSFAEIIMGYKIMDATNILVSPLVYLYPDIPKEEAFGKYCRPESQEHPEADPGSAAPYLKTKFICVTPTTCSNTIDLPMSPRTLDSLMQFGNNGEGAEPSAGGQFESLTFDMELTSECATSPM
Description: Inhibition of Stat3 phosphorylation in human MDA-MB-468 cells assessed as inhibition of Bcl2 expression at 1 to 20 uM by Western blotting analysis in normoxia condition

PANC-1 = assay: Reduction of total Stat3 level in human PANC1 cells at 0.5 to 20 uM by Western blotting analysis; format: functional, cell-based
MDA-MB-468 [8] = assay: Inhibition of HIF-1 in human MDA-MB-468 cells assessed as reduction of GLUT1 mRNA expression at 5 to 10 uM by RT-PCR analysis in hypoxia condition; format: cell-based
MDA-MB-231 [9] = assay: Induction of apoptosis in human MDA-MB-231 cells assessed as reduction in cell viability at 8 uM after 12 to 48 hrs by MTT assay; format: functional, cell-based
[10] = biological target: Hypoxia-inducible factor 1-alpha (Homo sapiens) (UniProt Q16665); assay: Inhibition of GST-tagged HIF-1 alpha (531 to 826) (unknown origin) expressed in Escherichia coli BL21(DE3) assessed as inhibition of GST-tagged HIF-1 alpha/p300 interaction at 5 ug after overnight incubation by pull down assay in hypoxia condition
MDA-MB-468 [11] = assay: Inhibition of HIF-1 in human MDA-MB-468 cells assessed as reduction of VEGF mRNA expression at 5 to 10 uM by RT-PCR analysis in hypoxia condition; format: cell-based
[12] = biological target: Hypoxia-inducible factor 1-alpha (Homo sapiens) (UniProt Q16665); assay: Inhibition of HIF-1 alpha in human MDA-MB-468 cells assessed as proteasomal degradation at 4 to 7 uM after 18 hrs by immunoblotting analysis in hypoxia condition; format: cell-based
MDA-MB-468 [13] = assay: Induction of apoptosis in human MDA-MB-468 cells assessed as reduction in cell viability at 1 to 10 uM by MTT assay; format: functional, cell-based
MDA-MB-231 [14] = assay: Anticancer activity in human MDA-MB-231 cells assessed as reduction of total Stat3 level at 10 uM after 18 hrs by Western blotting analysis; format: functional, cell-based
[15] = biological target: Hypoxia-inducible factor 1-alpha (Homo sapiens) (UniProt Q16665); assay: Inhibition of HIF-1 alpha in human PANC1 cells after 18 hrs by Western blotting analysis in hypoxia condition in presence of T40214; format: cell-based; settings: PANC-1
[16] = biological target: Aryl hydrocarbon receptor nuclear translocator (Homo sapiens) (UniProt P27540); assay: Inhibition of HIF-1 beta in human MDA-MB-231 cells at 1 to 20 uM by Western blotting analysis; format: cell-based
Aryl hydrocarbon receptor nuclear translocator (Homo sapiens), sequence (P27540 whole entry): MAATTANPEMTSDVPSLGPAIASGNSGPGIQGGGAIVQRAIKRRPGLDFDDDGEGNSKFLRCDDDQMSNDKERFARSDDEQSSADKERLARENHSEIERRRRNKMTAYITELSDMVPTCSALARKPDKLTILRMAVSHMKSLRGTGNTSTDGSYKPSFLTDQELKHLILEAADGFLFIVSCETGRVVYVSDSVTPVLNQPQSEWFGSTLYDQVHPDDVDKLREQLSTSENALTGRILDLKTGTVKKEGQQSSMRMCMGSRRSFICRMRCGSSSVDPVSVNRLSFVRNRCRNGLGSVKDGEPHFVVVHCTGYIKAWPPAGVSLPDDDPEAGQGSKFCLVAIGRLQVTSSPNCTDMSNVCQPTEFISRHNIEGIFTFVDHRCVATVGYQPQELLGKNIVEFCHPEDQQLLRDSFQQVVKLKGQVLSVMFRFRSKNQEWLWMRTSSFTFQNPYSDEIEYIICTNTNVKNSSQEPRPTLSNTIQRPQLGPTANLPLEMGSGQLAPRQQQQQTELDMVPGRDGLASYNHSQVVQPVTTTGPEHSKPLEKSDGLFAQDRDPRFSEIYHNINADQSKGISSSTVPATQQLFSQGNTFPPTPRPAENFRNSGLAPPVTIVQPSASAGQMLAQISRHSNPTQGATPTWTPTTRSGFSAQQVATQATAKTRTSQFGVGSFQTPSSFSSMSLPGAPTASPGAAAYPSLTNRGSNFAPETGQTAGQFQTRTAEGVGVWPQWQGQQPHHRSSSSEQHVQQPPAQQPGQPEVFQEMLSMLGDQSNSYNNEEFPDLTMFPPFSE

[17] = biological target: T1, Signal transducer and activator of transcription 1-alpha/beta (Homo sapiens) (UniProt P42224); assay: Inhibition of Stat1 phosphorylation in human MDA-MB-231 cells at 0.05 to 10 uM by Western blotting analysis; format: cell-based
T1 sequence (whole entry): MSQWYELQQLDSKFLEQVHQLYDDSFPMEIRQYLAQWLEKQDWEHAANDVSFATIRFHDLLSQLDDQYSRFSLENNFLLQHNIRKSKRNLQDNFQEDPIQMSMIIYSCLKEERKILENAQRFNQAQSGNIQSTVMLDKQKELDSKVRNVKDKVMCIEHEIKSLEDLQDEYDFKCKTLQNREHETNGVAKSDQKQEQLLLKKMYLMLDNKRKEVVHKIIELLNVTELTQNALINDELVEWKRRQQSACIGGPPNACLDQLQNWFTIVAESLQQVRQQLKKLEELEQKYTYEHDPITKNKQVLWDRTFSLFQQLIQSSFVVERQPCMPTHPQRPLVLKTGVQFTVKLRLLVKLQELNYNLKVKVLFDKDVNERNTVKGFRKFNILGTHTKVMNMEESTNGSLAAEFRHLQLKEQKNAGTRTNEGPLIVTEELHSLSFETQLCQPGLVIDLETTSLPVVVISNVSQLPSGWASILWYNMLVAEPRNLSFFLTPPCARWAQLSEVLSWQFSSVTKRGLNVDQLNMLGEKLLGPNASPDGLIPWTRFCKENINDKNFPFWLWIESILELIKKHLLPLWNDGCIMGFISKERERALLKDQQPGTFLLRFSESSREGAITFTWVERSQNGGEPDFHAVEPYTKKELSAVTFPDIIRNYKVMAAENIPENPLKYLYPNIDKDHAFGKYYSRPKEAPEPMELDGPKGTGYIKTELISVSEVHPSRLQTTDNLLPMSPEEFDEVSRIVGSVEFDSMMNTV

[18] = biological target: Hypoxia-inducible factor 1-alpha (Homo sapiens) (UniProt Q16665); assay: Inhibition of HIF-1 alpha in human PANC1 cells assessed as inhibition of Bcl2 expression at 1 to 20 uM by Western blotting analysis in hypoxia condition; format: cell-based; settings: PANC-1
[19] = biological target: Signal transducer and activator of transcription 3 (Homo sapiens) (UniProt P40763); settings: PANC-1, 1 to 20 uM
Description: Inhibition of Stat3 phosphorylation in human PANC1 cells assessed as inhibition of Bcl2 expression at 1 to 20 uM by Western blotting analysis in normoxia condition

[20] = biological target: Endothelial PAS domain-containing protein 1 (Homo sapiens) (UniProt Q99814); assay: Inhibition of HIF-2 alpha in human PC3 cells after 18 hrs by Western blotting analysis in hypoxia condition; format: cell-based; settings: PC-3
Endothelial PAS domain-containing protein 1 (Homo sapiens), sequence (Q99814 whole entry, the tested form may be a part): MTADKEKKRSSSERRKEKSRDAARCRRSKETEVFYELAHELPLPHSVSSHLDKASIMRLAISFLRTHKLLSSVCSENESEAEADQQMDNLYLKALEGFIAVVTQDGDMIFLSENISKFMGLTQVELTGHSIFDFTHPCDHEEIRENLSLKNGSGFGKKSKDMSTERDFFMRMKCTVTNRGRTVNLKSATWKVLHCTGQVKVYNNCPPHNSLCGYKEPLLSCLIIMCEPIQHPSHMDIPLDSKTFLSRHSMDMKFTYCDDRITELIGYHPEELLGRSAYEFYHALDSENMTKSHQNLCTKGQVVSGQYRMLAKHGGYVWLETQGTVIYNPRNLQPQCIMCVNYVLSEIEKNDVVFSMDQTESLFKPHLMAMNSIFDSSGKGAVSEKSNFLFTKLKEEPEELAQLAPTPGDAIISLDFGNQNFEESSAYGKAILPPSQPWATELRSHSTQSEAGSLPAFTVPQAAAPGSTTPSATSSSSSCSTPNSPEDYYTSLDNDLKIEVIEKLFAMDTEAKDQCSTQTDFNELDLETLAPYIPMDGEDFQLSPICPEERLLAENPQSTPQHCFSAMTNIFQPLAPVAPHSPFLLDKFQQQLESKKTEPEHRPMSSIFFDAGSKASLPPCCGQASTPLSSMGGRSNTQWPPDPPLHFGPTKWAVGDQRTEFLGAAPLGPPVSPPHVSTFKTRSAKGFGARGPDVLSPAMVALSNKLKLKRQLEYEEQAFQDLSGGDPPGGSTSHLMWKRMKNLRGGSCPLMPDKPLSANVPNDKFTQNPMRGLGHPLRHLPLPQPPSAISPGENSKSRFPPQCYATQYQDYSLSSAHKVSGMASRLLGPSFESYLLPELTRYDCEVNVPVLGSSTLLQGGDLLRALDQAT

## CN(C)CCCN1C(=O)c2ccc3c4ccc5c6c(ccc(c7ccc(c2c37)C1=O)c64)C(=O)N(CCCN(C)C)C5=O
[1]
  Activity: inactive
[2]
  inhibition: inactive
[3]
  inhibition: Active
[4]
  inhibition: inactive
MDA-MB-468 [5]
  Activity: Active
[6]
  inhibition: Active
[7]
  inhibition: Active
PANC-1
  Activity: Active
MDA-MB-468 [8]
  inhibition: Active
MDA-MB-231 [9]
  Activity: Active
[10]
  inhibition: Active
MDA-MB-468 [11]
  inhibition: Active
[12]
  inhibition: Active
MDA-MB-468 [13]
  Activity: Active
MDA-MB-231 [14]
  Activity: inactive
[15]
  inhibition: Active
[16]
  inhibition: inactive
[17]
  inhibition: inactive
[18]
  inhibition: Active
[19]
  inhibition: Active
[20]
  inhibition: Active
